Assay results as given in ChEMBL document CHEMBL5649169 (ChemMedChem, 2018).

Key:
[1] = target: Large ribosomal subunit protein eL33 (Homo sapiens) (UniProt P18077)
[2] = target: Leucine-rich repeat-containing protein 47 (Homo sapiens) (UniProt Q8N1G4)
[3] = target: Enhancer of rudimentary homolog (Homo sapiens) (UniProt P84090)
[4] = target: Insulin receptor (Homo sapiens) (UniProt P06213)
[5] = target: Monocarboxylate transporter 1 (Homo sapiens) (UniProt P53985)
[6] = target: Cathepsin D (Homo sapiens) (UniProt P07339)
[7] = target: WD repeat-containing protein 1 (Homo sapiens) (UniProt O75083)
[8] = target: Protein SGT1 homolog (Homo sapiens) (UniProt Q9Y2Z0)
[9] = target: Serine/threonine-protein kinase Nek9 (Homo sapiens) (UniProt Q8TD19)
[10] = target: Thioredoxin-dependent peroxide reductase, mitochondrial (Homo sapiens) (UniProt P30048)
Thioredoxin-dependent peroxide reductase, mitochondrial (Homo sapiens), sequence (P30048 whole entry): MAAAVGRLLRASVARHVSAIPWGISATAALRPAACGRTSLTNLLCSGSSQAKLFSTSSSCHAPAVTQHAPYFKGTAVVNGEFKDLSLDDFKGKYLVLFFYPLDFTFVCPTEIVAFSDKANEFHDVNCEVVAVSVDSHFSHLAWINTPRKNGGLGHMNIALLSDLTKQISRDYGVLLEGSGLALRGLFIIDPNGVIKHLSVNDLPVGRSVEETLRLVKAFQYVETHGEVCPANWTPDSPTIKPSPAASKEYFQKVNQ

[11] = target: Ephrin type-B receptor 4 (Homo sapiens) (UniProt P54760)
Ephrin type-B receptor 4 (Homo sapiens), sequence (P54760 whole entry): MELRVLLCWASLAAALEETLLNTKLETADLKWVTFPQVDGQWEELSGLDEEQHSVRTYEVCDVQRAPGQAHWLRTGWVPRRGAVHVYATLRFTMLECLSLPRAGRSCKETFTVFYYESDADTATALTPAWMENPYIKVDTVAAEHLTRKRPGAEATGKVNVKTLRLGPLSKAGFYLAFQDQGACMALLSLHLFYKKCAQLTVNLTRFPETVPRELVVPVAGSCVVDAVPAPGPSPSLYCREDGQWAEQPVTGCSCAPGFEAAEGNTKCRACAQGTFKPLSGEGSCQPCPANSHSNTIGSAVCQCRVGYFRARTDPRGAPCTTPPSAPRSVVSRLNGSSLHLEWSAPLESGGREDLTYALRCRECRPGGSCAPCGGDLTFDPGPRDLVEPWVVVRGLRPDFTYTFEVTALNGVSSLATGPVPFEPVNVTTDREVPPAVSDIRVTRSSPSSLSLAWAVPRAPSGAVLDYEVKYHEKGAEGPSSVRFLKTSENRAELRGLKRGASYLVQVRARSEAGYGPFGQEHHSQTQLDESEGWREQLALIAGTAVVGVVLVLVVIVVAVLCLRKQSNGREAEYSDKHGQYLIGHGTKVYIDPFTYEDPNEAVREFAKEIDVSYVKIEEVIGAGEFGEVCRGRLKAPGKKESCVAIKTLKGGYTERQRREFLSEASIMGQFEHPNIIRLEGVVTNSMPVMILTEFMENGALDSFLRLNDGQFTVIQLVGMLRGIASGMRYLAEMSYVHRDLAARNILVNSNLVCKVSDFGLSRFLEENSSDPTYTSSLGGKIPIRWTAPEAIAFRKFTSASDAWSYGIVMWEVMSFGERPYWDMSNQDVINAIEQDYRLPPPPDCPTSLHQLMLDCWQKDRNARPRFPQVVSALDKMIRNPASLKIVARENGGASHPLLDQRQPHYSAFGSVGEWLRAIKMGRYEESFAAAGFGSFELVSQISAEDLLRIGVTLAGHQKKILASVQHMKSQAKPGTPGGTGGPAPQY

[12] = target: Iron-sulfur clusters transporter ABCB7, mitochondrial (Homo sapiens) (UniProt O75027)
[13] = target: Large ribosomal subunit protein eL15 (Homo sapiens) (UniProt P61313)
[14] = target: Actin-related protein 2/3 complex subunit 1B (Homo sapiens) (UniProt O15143)
Filamin-A (Homo sapiens) = Filamin-A (Homo sapiens) (UniProt P21333)
[15] = target: Eukaryotic translation initiation factor 2A (Homo sapiens) (UniProt Q9BY44)
[16] = target: Calcium/calmodulin-dependent protein kinase kinase 2 (Homo sapiens) (UniProt Q96RR4)
Ephrin type-A receptor 4 = Ephrin type-A receptor 4 (Homo sapiens, UniProt P54764)
[17] = target: Serine/threonine-protein kinase D2 (Homo sapiens) (UniProt Q9BZL6)
[18] = target: Transferrin receptor protein 1 (Homo sapiens) (UniProt P02786)
[19] = target: SERPINE1 mRNA-binding protein 1 (Homo sapiens) (UniProt Q8NC51)
[20] = target: ATP-citrate synthase (Homo sapiens) (UniProt P53396)
[21] = target: Cytochrome c oxidase subunit 6C (Homo sapiens) (UniProt P09669)
Cytochrome c oxidase subunit 6C (Homo sapiens), sequence (P09669 whole entry): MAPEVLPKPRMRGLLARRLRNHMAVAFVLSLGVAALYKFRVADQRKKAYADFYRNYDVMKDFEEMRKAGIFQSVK

[22] = target: Zona pellucida sperm-binding protein 1 (Homo sapiens) (UniProt P60852)
[23] = target: tRNA N6-adenosine threonylcarbamoyltransferase (Homo sapiens) (UniProt Q9NPF4)
[24] = target: Programmed cell death 6-interacting protein (Homo sapiens) (UniProt Q8WUM4)
[25] = target: Mitochondrial import inner membrane translocase subunit TIM44 (Homo sapiens) (UniProt O43615)
[26] = target: ADP/ATP translocase 1 (Homo sapiens) (UniProt P12235)
[27] = target: Serine/threonine-protein kinase Nek3 (Homo sapiens) (UniProt P51956)
Serine/threonine-protein kinase Nek3 (Homo sapiens), sequence (P51956 whole entry): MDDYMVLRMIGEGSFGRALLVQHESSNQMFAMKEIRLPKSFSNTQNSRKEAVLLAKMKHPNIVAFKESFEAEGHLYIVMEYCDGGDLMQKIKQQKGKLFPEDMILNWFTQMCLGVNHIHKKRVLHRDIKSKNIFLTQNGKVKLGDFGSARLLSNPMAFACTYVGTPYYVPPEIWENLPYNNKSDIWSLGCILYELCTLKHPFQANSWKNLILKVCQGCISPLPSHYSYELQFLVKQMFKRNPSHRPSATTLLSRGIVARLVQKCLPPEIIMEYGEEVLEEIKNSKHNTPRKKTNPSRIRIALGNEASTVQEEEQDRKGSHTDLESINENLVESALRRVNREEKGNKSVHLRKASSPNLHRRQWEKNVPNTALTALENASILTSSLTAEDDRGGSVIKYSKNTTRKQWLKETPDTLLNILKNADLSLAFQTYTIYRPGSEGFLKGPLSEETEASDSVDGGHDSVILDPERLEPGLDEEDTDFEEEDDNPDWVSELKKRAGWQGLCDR

[28] = target: Mitogen-activated protein kinase kinase kinase kinase 3 (Homo sapiens) (UniProt Q8IVH8)
[29] = target: Myosin light polypeptide 6 (Homo sapiens) (UniProt P60660)
[30] = target: Proteasome activator complex subunit 1 (Homo sapiens) (UniProt Q06323)
Proteasome activator complex subunit 1 (Homo sapiens), sequence (Q06323 whole entry, one chain of several): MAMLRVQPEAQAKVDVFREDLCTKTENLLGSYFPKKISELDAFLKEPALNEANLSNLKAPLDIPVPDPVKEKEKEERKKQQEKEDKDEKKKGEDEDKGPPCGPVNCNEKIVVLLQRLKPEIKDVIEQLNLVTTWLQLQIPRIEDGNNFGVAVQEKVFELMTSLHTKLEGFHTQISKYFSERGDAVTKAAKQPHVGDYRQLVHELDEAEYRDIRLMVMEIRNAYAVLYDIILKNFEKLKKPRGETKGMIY

[31] = target: Unhealthy ribosome biogenesis protein 2 homolog (Homo sapiens) (UniProt Q14146)
[32] = target: Tubulin beta-6 chain (Homo sapiens) (UniProt Q9BUF5)
Tubulin beta-6 chain (Homo sapiens), sequence (Q9BUF5 whole entry): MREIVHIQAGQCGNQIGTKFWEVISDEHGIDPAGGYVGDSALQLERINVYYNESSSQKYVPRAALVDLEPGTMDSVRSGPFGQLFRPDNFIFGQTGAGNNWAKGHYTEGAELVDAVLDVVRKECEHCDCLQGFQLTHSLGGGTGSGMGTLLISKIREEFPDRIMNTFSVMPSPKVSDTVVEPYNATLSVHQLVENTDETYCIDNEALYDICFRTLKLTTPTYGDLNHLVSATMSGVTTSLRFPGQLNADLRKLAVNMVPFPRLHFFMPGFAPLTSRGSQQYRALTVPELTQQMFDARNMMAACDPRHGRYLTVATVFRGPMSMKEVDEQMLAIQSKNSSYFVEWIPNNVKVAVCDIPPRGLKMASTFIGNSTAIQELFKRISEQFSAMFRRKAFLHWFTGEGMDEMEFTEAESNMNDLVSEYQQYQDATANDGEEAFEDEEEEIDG

[33] = target: Poly(rC)-binding protein 1 (Homo sapiens) (UniProt Q15365)
[34] = target: Mitochondrial antiviral-signaling protein (Homo sapiens) (UniProt Q7Z434)
[35] = target: COP9 signalosome complex subunit 2 (Homo sapiens) (UniProt P61201)
COP9 signalosome complex subunit 2 (Homo sapiens), sequence (P61201 whole entry, one chain of several): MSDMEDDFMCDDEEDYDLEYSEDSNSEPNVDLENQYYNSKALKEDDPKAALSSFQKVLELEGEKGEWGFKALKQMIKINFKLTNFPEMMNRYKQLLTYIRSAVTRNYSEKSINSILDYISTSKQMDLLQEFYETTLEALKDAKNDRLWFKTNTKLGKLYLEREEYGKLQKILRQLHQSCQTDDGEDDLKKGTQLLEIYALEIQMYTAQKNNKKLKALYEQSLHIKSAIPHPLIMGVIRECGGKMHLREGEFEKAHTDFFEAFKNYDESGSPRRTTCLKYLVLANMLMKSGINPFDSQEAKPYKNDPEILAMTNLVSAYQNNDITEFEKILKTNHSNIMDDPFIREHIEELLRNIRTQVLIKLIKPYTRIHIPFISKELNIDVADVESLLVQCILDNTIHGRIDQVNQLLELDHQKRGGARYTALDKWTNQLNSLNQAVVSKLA

[36] = target: Amino acid transporter heavy chain SLC3A2 (Homo sapiens) (UniProt P08195)
[37] = target: Acyl-CoA dehydrogenase family member 10 (Homo sapiens) (UniProt Q6JQN1)
[38] = target: Lysosome-associated membrane glycoprotein 2 (Homo sapiens) (UniProt P13473)
[39] = target: Platelet-derived growth factor receptor beta (Homo sapiens) (UniProt P09619)
Platelet-derived growth factor receptor beta (Homo sapiens), sequence (P09619 whole entry): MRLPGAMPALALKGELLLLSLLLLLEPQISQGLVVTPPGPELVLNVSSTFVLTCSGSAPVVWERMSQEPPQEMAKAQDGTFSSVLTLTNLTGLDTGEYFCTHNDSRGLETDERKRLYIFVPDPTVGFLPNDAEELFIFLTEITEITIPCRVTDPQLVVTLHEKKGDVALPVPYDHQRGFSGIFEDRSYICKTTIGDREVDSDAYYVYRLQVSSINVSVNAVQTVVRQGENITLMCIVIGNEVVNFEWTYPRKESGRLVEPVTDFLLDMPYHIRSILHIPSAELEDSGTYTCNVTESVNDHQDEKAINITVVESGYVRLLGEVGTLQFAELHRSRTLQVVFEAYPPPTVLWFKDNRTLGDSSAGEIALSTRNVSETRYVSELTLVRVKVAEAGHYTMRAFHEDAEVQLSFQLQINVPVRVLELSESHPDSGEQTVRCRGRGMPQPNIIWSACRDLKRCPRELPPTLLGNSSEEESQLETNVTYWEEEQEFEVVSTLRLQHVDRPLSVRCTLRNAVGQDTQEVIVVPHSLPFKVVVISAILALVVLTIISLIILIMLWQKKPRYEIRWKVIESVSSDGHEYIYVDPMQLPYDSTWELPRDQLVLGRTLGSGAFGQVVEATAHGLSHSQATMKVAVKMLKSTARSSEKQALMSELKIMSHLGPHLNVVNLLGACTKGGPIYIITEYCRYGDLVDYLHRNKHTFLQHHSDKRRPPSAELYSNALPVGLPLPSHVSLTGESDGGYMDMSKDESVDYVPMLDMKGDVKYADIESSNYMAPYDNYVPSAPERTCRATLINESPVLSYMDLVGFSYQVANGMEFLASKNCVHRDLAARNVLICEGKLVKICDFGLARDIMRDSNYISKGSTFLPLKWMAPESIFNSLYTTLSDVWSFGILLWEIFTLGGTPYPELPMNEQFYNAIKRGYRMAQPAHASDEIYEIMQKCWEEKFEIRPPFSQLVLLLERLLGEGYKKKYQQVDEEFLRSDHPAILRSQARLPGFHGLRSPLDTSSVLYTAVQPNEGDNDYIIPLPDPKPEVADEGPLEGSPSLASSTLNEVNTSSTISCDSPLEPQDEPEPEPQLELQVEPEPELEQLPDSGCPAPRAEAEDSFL

[40] = target: Insulin-like growth factor 1 receptor (Homo sapiens) (UniProt P08069)
[41] = target: E3 ubiquitin-protein ligase UBR4 (Homo sapiens) (UniProt Q5T4S7)
[42] = target: Pyridoxal kinase (Homo sapiens) (UniProt O00764)
Pyridoxal kinase (Homo sapiens), sequence (O00764 whole entry): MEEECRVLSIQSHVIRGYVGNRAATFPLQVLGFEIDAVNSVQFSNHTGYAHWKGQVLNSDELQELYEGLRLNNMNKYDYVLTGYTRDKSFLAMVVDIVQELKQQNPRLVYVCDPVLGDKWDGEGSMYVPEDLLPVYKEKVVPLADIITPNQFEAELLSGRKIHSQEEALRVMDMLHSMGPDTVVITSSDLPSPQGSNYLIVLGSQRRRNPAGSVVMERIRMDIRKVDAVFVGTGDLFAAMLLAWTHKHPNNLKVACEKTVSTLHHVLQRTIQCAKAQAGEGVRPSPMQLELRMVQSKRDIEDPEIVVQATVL

Stathmin (Homo sapiens) = Stathmin (Homo sapiens) (UniProt P16949)
Stathmin (Homo sapiens), sequence (P16949 whole entry): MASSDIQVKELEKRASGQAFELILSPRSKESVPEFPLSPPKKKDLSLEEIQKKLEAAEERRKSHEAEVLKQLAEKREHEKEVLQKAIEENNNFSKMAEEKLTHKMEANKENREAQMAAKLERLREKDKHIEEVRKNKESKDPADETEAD

[43] = target: Profilin-1 (Homo sapiens) (UniProt P07737)
Profilin-1 (Homo sapiens), sequence (P07737 whole entry): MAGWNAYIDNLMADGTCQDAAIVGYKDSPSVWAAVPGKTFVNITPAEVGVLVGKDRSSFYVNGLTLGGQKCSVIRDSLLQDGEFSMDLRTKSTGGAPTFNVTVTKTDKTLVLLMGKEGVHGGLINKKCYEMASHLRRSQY
Also: assay method not described here.

Enhancer of rudimentary homolog (Homo sapiens), sequence (P84090 2-104 limits assumed): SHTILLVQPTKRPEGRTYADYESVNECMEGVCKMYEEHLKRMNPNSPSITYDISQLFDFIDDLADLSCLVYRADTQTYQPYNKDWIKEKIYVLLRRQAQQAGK

Which results are given for `Cc1ccc(C(=O)Nc2cccc(C(F)(F)F)c2)cc1Nc1nc(-c2cccnc2)nc2nn(C)cc12`?
ED50 [1]: 0.0167 µM; ED50 [2]: 0.00913 µM; ED50 [3]: 0.806 µM; ED50 [4]: 0.00863 µM; ED50 [5]: 2.98 µM; ED50 [6]: 760 µM; ED50 [7]: 0.0817 µM; ED50 [8]: 4.08 µM; ED50 [9]: 0.0519 µM; ED50 [10]: 4.56 µM; ED50 [11]: 2.25 µM; ED50 [12]: 0.0289 µM; ED50 [13]: 0.0592 µM; ED50 [14]: 0.0545 µM; ED50 (Filamin-A (Homo sapiens)): 21.4 µM; ED50 [15]: 0.0386 µM; ED50 [16]: 10.2 µM; ED50 (Ephrin type-A receptor 4): 5.1 µM; ED50 [17]: 0.0468 µM; ED50 [18]: 7.34 µM; ED50 [19]: 11 µM; ED50 [20]: 21.4 µM; ED50 [21]: 0.012 µM; ED50 [22]: 4.25 µM; ED50 [23]: 8.47 µM; ED50 [24]: 4.24 µM; ED50 [25]: 0.31 µM; ED50 (Homo sapiens): 0.0418 µM; ED50 [26]: 107 µM; ED50 [27]: 10.7 µM; ED50 [28]: 28.7 µM; ED50 [29]: 0.0815 µM; ED50 [30]: 2.59 µM; ED50 [31]: 2.12 µM; ED50 [32]: 4.67 µM; ED50 [33]: 0.053 µM; ED50 [34]: 0.394 µM; ED50 [35]: 79.4 µM; ED50 [36]: 0.362 µM; ED50 [37]: 0.434 µM; ED50 [38]: 1.72 µM; ED50 [39]: 10 µM; ED50 [40]: 8.2 µM; ED50 [41]: 0.593 µM; ED50 [42]: 1.19 µM; ED50 (Stathmin (Homo sapiens)): 8.26 µM; ED50 [43]: 3.98 µM

With `Cc1ccc(C(=O)Nc2cccc(C(F)(F)F)c2)cc1Nc1nc(-c2cccnc2)nc2c1cnn2C` as the compound, how does the ED50 [1] read?
The ED50 was 0.0388 µM.

What about the ED50 [2] of the same compound?
Its ED50 is 0.0207 µM.

What about the ED50 [3] of the same compound?
The ED50 was 0.00895 µM.

And the ED50 [4]?
Its ED50 is 0.163 µM.

And the ED50 [5]?
The ED50 was 0.0482 µM.

And the ED50 [6]?
Its ED50 is 59.3 µM.

And the ED50 [7]?
The ED50 was 2.69 µM.

What about the ED50 [8] of the same compound?
The ED50 was 17.2 µM.

And the ED50 [9]?
Its ED50 is 0.163 µM.

What about the ED50 [10] of the same compound?
Its ED50 is 0.164 µM.

What about the ED50 [11] of the same compound?
The ED50 was 1.4 µM.

What about the ED50 [12] of the same compound?
The ED50 was 0.0622 µM.

What about the ED50 [13] of the same compound?
The ED50 was 0.425 µM.

What about the ED50 [14] of the same compound?
Its ED50 is 115 µM.

And the ED50 (Filamin-A (Homo sapiens))?
The ED50 was 7.88 µM.

What about the ED50 [15] of the same compound?
The ED50 was 25.7 µM.

And the ED50 [16]?
The ED50 was 0.112 µM.

And the ED50 (Ephrin type-A receptor 4)?
Its ED50 is 1.13 µM.

And the ED50 [17]?
The ED50 was 0.49 µM.

What about the ED50 [18] of the same compound?
The ED50 was 0.1 µM.

What about the ED50 [19] of the same compound?
Its ED50 is 0.0274 µM.

What about the ED50 [20] of the same compound?
Its ED50 is 12.3 µM.

And the ED50 [21]?
The ED50 was 16.2 µM.

And the ED50 [22]?
Its ED50 is 0.00241 µM.

And the ED50 [23]?
Its ED50 is 7.56 µM.

And the ED50 [24]?
The ED50 was 4.91 µM.

What about the ED50 [25] of the same compound?
The ED50 was 0.445 µM.

And the ED50 (Homo sapiens)?
The ED50 was 4.25 µM.

What about the ED50 [26] of the same compound?
The ED50 was 1.74 µM.

And the ED50 [27]?
The ED50 was 4.18 µM.

And the ED50 [28]?
The ED50 was 20500 µM.

And the ED50 [29]?
Its ED50 is 5.79 µM.

What about the ED50 [30] of the same compound?
Its ED50 is 2570 µM.

And the ED50 [31]?
The ED50 was 2.88 µM.

And the ED50 [32]?
Its ED50 is 2.53 µM.

What about the ED50 [33] of the same compound?
The ED50 was 13 µM.

What about the ED50 [34] of the same compound?
The ED50 was 5.26 µM.

And the ED50 [35]?
Its ED50 is 24.6 µM.

And the ED50 [36]?
The ED50 was 5.57 µM.

And the ED50 [37]?
The ED50 was 11.5 µM.

What about the ED50 [38] of the same compound?
The ED50 was 0.0378 µM.

What about the ED50 [39] of the same compound?
The ED50 was 0.000102 µM.

What about the ED50 [40] of the same compound?
Its ED50 is 0.0179 µM.

What about the ED50 [41] of the same compound?
The ED50 was 0.00366 µM.

What about the ED50 [42] of the same compound?
The ED50 was 0.00509 µM.

What about the ED50 (Stathmin (Homo sapiens)) of the same compound?
The ED50 was 12.4 µM.

What about the ED50 [43] of the same compound?
Its ED50 is 3.95 µM.
